Assay results from PMC8857453 (Biotechnology Reports, 2022).
Like-named read-outs stand apart in the source and are kept apart here.

Tests used:
[1] = test system: Aps-t
[2] = test system: Aps-t; conditions: 50 mM MES pH 6, 100 mM NaCl, 1 mM MgCl2, 37 °C; pNPP stock in 0.1 M sodium acetate pH 4.5

Nc1ncnc2c1ncn2[C@@H]1O[C@H](COP(=O)(O)OP(=O)(O)O)[C@@H](O)[C@H]1O [ADP]
Km [1]: 190 ± 10 µM

Nc1ncnc2c1ncn2[C@@H]1O[C@H](COP(=O)(O)O)[C@@H](O)[C@H]1O [AMP]
Km [1]: 270 ± 20 µM

Nc1ncnc2c1ncn2[C@@H]1O[C@H](COP(=O)(O)OP(=O)(O)OP(=O)(O)O)[C@@H](O)[C@H]1O [ATP]
Km [1]: 1000 ± 120 µM

O=[N+]([O-])c1ccc(OP(=O)(O)O)cc1 [pNPP]
Km [2]: 94 ± 14 µM
